From patent publication US11668699B2, “Compositions and methods for determining mechanical properties of cells” (Arizona Board of Regents on Behalf of the University of …, priority 2016, dated 2023)
Like-named read-outs stand apart in the source and are kept apart here.

Key:
[1] = tested on: platelets; conditions: for Platelet deformation along the axis of maximum extension, normalized to the original length: platelets treated with 0.4% paraformaldehyde, 1 MHz
Protocol: Gel filtered platelets were prepared as previously described, from whole blood drawn from aspirin and non-steroidal anti-inflammatory medication free volunteers providing informed consent (Sheriff, J., et al., High-shear stress sensitizes platelets to subsequent low-shear conditions. Ann Biomed Eng, 2010. 38(4): p. 1442-50).
A 127 μm-thick hollow polymer spacer was placed on top of the chip to create a fluid chamber and the chip was covered with a coverslip for microscopic observation. All chip glass surfaces were coated with Sigmacote (Sigma-Aldrich, MO, USA) and rinsed with D.I. water to prevent surface-induced platelet activation.
To visualize platelets they were first exposed to Alexa Fluor 594 conjugated wheat germ agglutinin (1 μg/mL, 10 mins, 37° C., Invitrogen, CA). Platelets were then diluted 100-200 fold (v/v) in isotonic buffer (Pommer, M. S., et al., Dielectrophoretic separation of platelets from diluted whole blood in microfluidic channels. Electrophoresis, 2008. 29(6): p. 1213-8) containing 8.5% w/v sucrose and 0.3% w/v dextrose until the medium conductivity reached ˜1500/cm. as measured by a Jenway 4520 conductivity meter (Jenway, Staffordshire, UK). 50 μl of the diluted platelets sample were pipetted into the fluid chamber of the microelectrode chip. An alternating electric current in a sine wave pattern was generated across the microelectrodes using a function generator (332220A, Agilent, CA,) connected to a wideband power amplifier (7600M, Krohn-hite, MA). The amplitude of applied voltage was monitor via digital oscilloscope (GDS-1102, GW Instek, CA). The sample chip was imaged via fluorescence microscopy (Eclipse E800, 100× oil, Nikon, N.Y.), images were captured via CCD (Sensicam 12bt CCD camera, Cooke Corporation, MI), processed and quantified using NIH Image J software.
In the studies, platelet deformations under sequential increase of applied voltage, from 0 to 90Vpk-pk at 15V steps, were measured at a frequency of 1 MHz and the result is shown in FIG. 4A. […] Images of deformed platelets were captured in a duration ˜5s.

[2] = tested on: platelets; test: Platelet activation assay: cell surface expression of P-selectin by immunofluorescence; format: cell-based, human; conditions: 0.125 μM thrombin, 10 mins, 37° C.; mean ± standard error, >70 platelets
Text: (§1) Platelet activation level was quantified via cell surface expression of P-selectin utilizing immunohistochemical staining (Hsulin, S. C., et al., A Platelet Membrane-Protein Expressed during Platelet Activation and Secretion-Studies Using a Monoclonal Antibody Specific for Thrombin-Activated Platelets. Journal of Biological Chemistry, 1984. 259(14): p. 9121-9126; Berman, C. L., et al., A Platelet Alpha Granule Membrane-Protein That Is Associated with the Plasma-Membrane after Activation-Characterization and Subcellular-Localization of Platelet Activation Dependent Granule-External Membrane-Protein. Journal of Clinical Investigation, 1986. 78(1): p. […] Platelets were paraformaldehyde fixed (3%, 20 mins) rinsed and incubated (30 min., 37° C.) with FITC Mouse Anti-Human CD62P (50 μl, 1:5 (v/v) dilution in PBS, BD Biosciences, CA) and imaged using fluorescence microscopy. Fluorescence intensity levels were measured following background subtraction. […] Activation of the positive and negative controls was also quantified via the chemically modified prothrombin-based platelet activation state (PAS) assay (Jesty, J. and D. Bluestein, Acetylated prothrombin as a substrate in the measurement of the procoagulant activity of platelets: Elimination of the feedback activation of platelets by thrombin. Analytical Biochemistry, 1999. 272(1): p. 64-70.).

[3] = tested on: platelets; test: Chemically modified prothrombin-based platelet activation state (PAS) assay; format: cell-based, human; conditions: 0.125 μM thrombin, 10 mins, 37° C.
Text: as §1

Substance | Decrease in deformation compared to untreated platelets ([1]; 0.4% paraformaldehyde, 90Vpk-pk applied voltage, p-value=0.0002) [times] | Young's modulus of platelets (slope of linear fitted stress-deformation curve) ([1]; platelets treated by 0.4% paraformaldehyde, stress from Maxwell stress tensor simulation) | Platelet deformation along the axis of maximum extension, normalized to the original length ([1]; applied voltage 15 V) [%] | Platelet deformation along the axis of maximum extension, normalized to the original length ([1]; applied voltage 90 V) [%] | P-selectin expression, averaged fluorescence intensity level [2] | Platelet activation level (PAS assay) [3] [%]
paraformaldehyde | 2.75 | 8.5+/−1.5 kPa | 0.73±1.33 | 4.90±1.98 | – | –
thrombin | – | – | – | – | 1526.15±75.04 | 24.7
